# Measured values as given in ChEMBL document CHEMBL1139012, “Synthesis and biological evaluation of purealin and analogues as cytoplasmic dynein heavy chain inhibitors” (J Med Chem, 2006).
# What was measured:
# 2008 = experiment: Antiproliferative activity against human 2008 ovarian carcinoma cells by MTS assay; type: functional
# [1] = target: Cytoplasmic dynein 1 heavy chain 1 (Rattus norvegicus, UniProt P38650); experiment: Inhibition of MT-stimulated ATPase activity of rat cytoplasmic dynein heavy chain motor domain
# MDA-MB-231 = experiment: Antiproliferative activity against human MDA-MB-231 breast carcinoma cells by MTS assay; type: functional
# HT-29 = experiment: Antiproliferative activity against human HT29 colon carcinoma cells by MTS assay; type: functional
# PC-3 = experiment: Antiproliferative activity against human PC3 prostate carcinoma cells by MTS assay; type: functional
# L1210 = experiment: Antiproliferative activity against mouse L1210 leukemia cell line by MTS assay; type: functional
# Cytoplasmic dynein 1 heavy chain 1, sequence (P38650 whole entry, the tested form may be a part): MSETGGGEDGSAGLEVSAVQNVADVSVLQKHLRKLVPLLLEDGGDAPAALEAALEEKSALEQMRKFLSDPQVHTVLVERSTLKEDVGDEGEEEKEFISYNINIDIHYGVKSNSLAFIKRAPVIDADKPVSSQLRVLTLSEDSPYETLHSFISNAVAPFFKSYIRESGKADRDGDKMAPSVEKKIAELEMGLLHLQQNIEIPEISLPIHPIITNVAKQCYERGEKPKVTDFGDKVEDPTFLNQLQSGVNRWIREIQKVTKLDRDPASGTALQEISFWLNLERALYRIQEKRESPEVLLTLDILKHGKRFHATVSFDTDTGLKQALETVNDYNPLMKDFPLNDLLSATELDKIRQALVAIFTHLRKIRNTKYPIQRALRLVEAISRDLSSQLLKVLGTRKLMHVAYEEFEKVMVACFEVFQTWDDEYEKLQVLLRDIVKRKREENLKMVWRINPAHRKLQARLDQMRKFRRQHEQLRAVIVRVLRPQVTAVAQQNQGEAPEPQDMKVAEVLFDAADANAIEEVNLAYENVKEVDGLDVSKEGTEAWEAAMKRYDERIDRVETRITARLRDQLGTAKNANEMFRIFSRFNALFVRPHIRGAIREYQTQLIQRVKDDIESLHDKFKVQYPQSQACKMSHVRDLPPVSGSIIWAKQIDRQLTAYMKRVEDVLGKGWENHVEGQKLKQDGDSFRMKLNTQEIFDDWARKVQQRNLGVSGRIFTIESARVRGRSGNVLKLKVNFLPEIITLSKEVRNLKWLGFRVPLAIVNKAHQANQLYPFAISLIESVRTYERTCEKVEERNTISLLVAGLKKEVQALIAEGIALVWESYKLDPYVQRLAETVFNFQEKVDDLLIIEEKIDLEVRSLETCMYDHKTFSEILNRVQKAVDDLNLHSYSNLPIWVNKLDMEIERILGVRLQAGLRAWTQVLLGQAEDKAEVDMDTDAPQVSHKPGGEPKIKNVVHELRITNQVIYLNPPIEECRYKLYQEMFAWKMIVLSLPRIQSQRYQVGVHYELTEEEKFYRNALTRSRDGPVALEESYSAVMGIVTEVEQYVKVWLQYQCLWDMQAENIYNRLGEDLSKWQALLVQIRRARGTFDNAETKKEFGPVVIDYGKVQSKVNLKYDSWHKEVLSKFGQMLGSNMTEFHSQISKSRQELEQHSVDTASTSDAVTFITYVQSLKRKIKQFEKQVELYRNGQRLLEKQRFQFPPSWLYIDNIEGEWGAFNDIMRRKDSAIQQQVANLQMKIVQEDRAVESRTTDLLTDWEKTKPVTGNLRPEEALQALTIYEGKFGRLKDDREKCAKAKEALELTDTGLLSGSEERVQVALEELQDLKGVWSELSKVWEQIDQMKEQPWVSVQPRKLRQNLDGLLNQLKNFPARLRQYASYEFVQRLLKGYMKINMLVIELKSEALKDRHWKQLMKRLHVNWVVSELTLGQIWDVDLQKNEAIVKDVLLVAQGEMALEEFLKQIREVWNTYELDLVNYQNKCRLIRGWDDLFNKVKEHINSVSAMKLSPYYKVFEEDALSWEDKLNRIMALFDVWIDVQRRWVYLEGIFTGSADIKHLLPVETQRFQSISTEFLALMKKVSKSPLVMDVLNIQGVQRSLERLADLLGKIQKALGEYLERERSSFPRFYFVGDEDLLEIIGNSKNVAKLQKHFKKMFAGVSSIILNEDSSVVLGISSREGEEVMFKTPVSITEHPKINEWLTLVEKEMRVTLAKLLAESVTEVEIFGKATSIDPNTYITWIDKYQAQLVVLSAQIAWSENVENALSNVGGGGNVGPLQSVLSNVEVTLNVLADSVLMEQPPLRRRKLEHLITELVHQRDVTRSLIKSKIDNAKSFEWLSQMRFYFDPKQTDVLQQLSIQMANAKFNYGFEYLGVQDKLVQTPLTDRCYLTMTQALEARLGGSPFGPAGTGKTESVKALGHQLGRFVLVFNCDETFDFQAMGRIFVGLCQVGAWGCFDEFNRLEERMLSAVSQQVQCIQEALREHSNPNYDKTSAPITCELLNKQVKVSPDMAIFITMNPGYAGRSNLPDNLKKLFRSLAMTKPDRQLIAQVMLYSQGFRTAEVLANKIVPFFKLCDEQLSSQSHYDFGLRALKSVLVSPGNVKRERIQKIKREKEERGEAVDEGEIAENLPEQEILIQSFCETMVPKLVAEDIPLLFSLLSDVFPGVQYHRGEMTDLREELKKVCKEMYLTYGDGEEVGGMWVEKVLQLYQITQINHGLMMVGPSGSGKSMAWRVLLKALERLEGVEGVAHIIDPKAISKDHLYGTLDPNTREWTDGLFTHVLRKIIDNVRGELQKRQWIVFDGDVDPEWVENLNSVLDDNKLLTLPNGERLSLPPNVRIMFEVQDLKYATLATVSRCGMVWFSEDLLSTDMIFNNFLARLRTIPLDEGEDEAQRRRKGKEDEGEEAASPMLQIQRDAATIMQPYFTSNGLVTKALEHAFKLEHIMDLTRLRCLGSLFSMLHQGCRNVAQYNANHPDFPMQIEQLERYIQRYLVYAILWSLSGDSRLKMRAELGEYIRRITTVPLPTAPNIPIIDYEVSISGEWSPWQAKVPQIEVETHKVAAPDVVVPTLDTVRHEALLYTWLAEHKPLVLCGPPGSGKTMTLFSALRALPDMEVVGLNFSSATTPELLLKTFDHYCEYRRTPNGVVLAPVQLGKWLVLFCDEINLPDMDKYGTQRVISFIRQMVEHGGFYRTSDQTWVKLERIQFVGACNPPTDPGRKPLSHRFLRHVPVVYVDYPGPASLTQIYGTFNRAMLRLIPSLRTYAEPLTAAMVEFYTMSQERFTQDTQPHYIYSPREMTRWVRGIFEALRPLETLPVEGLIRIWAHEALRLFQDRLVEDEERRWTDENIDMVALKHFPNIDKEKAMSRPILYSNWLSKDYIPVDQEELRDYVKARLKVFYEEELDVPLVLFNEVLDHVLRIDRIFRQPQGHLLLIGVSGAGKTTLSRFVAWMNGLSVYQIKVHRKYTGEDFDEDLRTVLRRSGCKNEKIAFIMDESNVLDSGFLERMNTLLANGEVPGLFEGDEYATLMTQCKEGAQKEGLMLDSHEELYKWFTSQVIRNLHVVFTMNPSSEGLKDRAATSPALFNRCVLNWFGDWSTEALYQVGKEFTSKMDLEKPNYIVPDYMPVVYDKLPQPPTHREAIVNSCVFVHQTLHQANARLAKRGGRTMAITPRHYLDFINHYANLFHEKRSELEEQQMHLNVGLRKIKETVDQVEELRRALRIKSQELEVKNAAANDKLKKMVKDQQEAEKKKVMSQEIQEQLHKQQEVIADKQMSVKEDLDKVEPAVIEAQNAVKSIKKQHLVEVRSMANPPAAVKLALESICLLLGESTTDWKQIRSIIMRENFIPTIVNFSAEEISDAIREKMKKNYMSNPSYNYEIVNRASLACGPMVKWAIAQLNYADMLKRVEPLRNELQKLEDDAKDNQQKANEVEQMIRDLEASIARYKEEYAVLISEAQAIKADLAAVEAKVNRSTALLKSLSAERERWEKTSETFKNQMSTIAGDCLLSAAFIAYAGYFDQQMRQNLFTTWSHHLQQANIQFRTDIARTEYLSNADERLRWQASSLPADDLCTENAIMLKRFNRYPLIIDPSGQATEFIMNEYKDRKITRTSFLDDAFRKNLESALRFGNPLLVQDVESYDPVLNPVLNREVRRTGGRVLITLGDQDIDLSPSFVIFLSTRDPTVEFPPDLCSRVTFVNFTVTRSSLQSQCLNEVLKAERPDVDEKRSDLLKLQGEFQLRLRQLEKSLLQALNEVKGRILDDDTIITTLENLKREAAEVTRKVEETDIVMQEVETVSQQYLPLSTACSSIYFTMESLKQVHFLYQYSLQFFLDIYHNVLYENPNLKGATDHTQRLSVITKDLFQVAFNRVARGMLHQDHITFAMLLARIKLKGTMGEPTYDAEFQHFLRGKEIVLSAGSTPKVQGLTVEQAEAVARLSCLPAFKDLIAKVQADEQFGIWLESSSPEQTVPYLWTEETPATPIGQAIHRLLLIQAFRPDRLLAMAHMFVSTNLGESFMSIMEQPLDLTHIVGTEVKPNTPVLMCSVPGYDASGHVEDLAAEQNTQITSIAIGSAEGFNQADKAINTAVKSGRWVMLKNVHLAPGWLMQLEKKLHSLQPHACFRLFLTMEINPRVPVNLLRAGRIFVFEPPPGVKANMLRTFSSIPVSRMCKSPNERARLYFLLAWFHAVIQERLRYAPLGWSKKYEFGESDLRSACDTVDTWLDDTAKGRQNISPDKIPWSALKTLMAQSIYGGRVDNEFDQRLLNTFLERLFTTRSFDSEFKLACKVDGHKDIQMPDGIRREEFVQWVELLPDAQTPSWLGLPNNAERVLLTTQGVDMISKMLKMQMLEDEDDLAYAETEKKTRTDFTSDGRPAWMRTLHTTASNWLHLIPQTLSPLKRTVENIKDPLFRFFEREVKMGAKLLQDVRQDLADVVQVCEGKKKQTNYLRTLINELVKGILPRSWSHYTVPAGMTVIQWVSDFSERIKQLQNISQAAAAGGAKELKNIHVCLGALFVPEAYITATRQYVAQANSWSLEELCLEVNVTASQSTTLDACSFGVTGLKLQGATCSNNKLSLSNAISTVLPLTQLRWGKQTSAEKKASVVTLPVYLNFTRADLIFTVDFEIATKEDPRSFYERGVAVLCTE
Compound,IC50 [1],GI50 (MDA-MB-231),GI50 (HT-29),GI50 (PC-3),GI50 (L1210),GI50 2008
CCCCCCCCCCCCCCCC(=O)NCCCOc1c(Br)cc(C/C(=N/O)C(=O)NCCc2c[nH]c(N)n2)cc1Br [LIPOPUREALIN C],,7 µM,20 µM,32 µM,9.7 µM,5.7 µM
NCCCOc1ccc(C/C(=N/O)C(=O)NCCc2ccccc2)cc1Br,,> 50 µM,27 µM,31 µM,6.2 µM,30 µM
COc1ccc(CCNC(=O)/C(Cc2cc(Cl)cc(Cl)c2OCCCN)=N\O)cc1,,24 µM,6.2 µM,32 µM,6.9 µM,29 µM
CCCCCCCCCCCCCC(=O)NCCCOc1c(Br)cc(C/C(=N/O)C(=O)NCCc2c[nH]c(N)n2)cc1Br [LIPOPUREALIN A],> 50 µM,28 µM,29 µM,30 µM,9 µM,28 µM
COC1=C(Br)[C@@H](O)[C@]2(C=C1Br)CC(C(=O)NCCCOc1c(Br)cc(C/C(=N/O)C(=O)NCCc3c[nH]c(N)n3)cc1Br)=NO2 [PUREALIN],35 µM,> 50 µM,> 50 µM,> 50 µM,3.2 µM,> 50 µM
C=C/C=C\[C@H](C)[C@H](OC(N)=O)[C@@H](C)[C@H](O)[C@@H](C)C/C(C)=C\[C@H](C)[C@@H](O)[C@@H](C)/C=C\[C@@H](O)C[C@@H]1OC(=O)[C@H](C)[C@@H](O)[C@H]1C [DISERMOLIDE],,0.04 µM,0.028 µM,0.052 µM,0.0092 µM,0.0027 µM
COc1ccc(CCNC(=O)/C(Cc2cc(Br)c(OCCCN)c(Br)c2)=N\O)cc1,,17 µM,20 µM,21 µM,2.8 µM,24 µM
NCCCOc1ccc(C/C(=N/O)C(=O)NCCc2ccc(Cl)cc2)cc1Br,> 50 µM,26 µM,27 µM,33 µM,6.5 µM,27 µM
CC(C)CCCCCCCCCCCC(=O)NCCCOc1c(Br)cc(C/C(=N/O)C(=O)NCCc2c[nH]c(N)n2)cc1Br [LIPOPUREALIN B],,28 µM,30 µM,25 µM,12 µM,29 µM
NCCCOc1c(Cl)cc(Cl)cc1C/C(=N/O)C(=O)NCCc1ccc(Cl)cc1,,5.2 µM,5.5 µM,7.8 µM,5.9 µM,5.4 µM
COc1ccc(CCNC(=O)/C(Cc2ccc(OCCCN)c(Br)c2)=N\O)cc1,,48 µM,30 µM,39 µM,9.9 µM,31 µM

# Further lines, with some results ahead:
IC50 [1],GI50 (MDA-MB-231),GI50 (HT-29),GI50 (PC-3),GI50 (L1210),Compound,GI50 2008
> 50 µM,5.6 µM,5.3 µM,15 µM,6.3 µM,NCCCOc1c(Br)cc(Br)cc1C/C(=N/O)C(=O)NCCc1ccc(Cl)cc1,5.6 µM
,27 µM,31 µM,31 µM,6.4 µM,NCCCOc1c(Br)cc(C/C(=N/O)C(=O)NCCc2ccccc2)cc1Br,29 µM
,8.8 µM,4.9 µM,35 µM,6.2 µM,COc1ccc(CCNC(=O)/C(Cc2cc(Br)cc(Br)c2OCCCN)=N\O)cc1,25 µM
,7.6 µM,5.6 µM,31 µM,7.5 µM,NCCCOc1c(Cl)cc(Cl)cc1C/C(=N/O)C(=O)NCCc1ccccc1,8.8 µM
42 µM,> 50 µM,> 50 µM,> 50 µM,4.7 µM,NCCCOc1c(Br)cc(C/C(=N/O)C(=O)NCCc2c[nH]c(N)n2)cc1Br [PUREALIDIN A],> 50 µM
,24 µM,26 µM,26 µM,5.8 µM,NCCCOc1c(Br)cc(C/C(=N/O)C(=O)NCCc2c[nH]c3ccccc23)cc1Br,27 µM
,27 µM,31 µM,30 µM,7.8 µM,NCCCOc1c(Br)cc(C/C(=N/O)C(=O)NCCc2ccc(Cl)cc2)cc1Br,29 µM
> 50 µM,25 µM,30 µM,32 µM,7.6 µM,NCCCOc1ccc(C/C(=N/O)C(=O)NCCc2c[nH]c3ccccc23)cc1Br,26 µM
,5.7 µM,5.3 µM,19 µM,6.3 µM,NCCCOc1c(Br)cc(Br)cc1C/C(=N/O)C(=O)NCCc1ccccc1,19 µM
> 50 µM,5.3 µM,6 µM,5 µM,5.8 µM,NCCCOc1c(Cl)cc(Cl)cc1C/C(=N/O)C(=O)NCCc1c[nH]c2ccccc12,5.7 µM
> 50 µM,6.7 µM,6 µM,31 µM,5.4 µM,NCCCOc1c(Br)cc(Br)cc1C/C(=N/O)C(=O)NCCc1c[nH]c2ccccc12,7.5 µM
